Experimental data as given in patent publication US4751215A, “Process for increasing the sexual activity of birds and useful domestic mammals and for preparing spermatozoa suitable to their propagation” (INNOFINANCE Altalanos Innovacios Penzintezet, priority 1985, dated 1988).

Assays:
Format in all cases: in vivo
male turkeys = assay: Effect of gonadoliberin analogues on the sperm production of male turkeys (Table 5)
Description: In a further experiment, the sperm production of male turkeys was raised by administering the following four compounds: […]

male angora rabbits = assay: Enhancement of the sperm production of male rabbits; settings: 3 μg every 2 days, 3 times
Description: In this experiment male angora rabbits showing a low libido were used from which no sperm could be obtained. The motility of the cells in their sperm was lower than 75%; thus, these animals could not be used for propagating. Of these animals 234 were treated with 3 μg of D-Phe^6,desGly^10 -GnRH ethylamide analogue every 2 days, altogether 3 times. […] These effects could be observed for several weeks; thus, the amount of the sperm usable for artificial insemination increased to its 2.5-fold value.

[1] = system: blood plasma testosterone level; assay: Blood plasma testosterone level of ganders (Table 6); settings: for Testosterone: Treated (n = 10)
Description: (§1) Ganders kept under large-scale conditions and propagated in a natural way were treated with 0.5 μg/kg of D-Phe^6,desGly^10 -GnRH ethylamide analogue every 2 days, altogether 3 times. […] This manifested itself in the rise of the copulation activity (Table 6).

ganders [2] = assay: Sperm production and sperm quality of ganders kept under natural conditions (Table 7)
Description: "Hungarian" and "Landes" ganders kept under natural conditions and divided to small groups were treated with 0.5 μg/kg of D-Phe^6,desGly^10 -GnRH ethylamide analogue every 2 days, altogether 3 times.

ganders [3] = assay: Copulation activity / libido of ganders (Table 6); settings: for No. of daily copulations: Treated (n = 10)
Description: as §1

[4] = at the beginning of the experiment
[5] = 0.5 μg/kg every 2 days, 3 times
[6] = "Hungarian" ganders, sampling February 7
[7] = "Hungarian" ganders, sampling February 14
[8] = "Hungarian" ganders, sampling February 21
[9] = "Hungarian" ganders, sampling February 28
[10] = "Hungarian" ganders, sampling January 15 (before treatment)
[11] = "Hungarian" ganders, sampling January 31
[12] = "Hungarian" ganders, sampling March 7
[13] = "Hungarian" ganders, sampling March 12
[14] = "Landes" ganders, sampling February 7
[15] = "Landes" ganders, sampling February 14
[16] = "Landes" ganders, sampling February 21
[17] = "Landes" ganders, sampling February 28
[18] = "Landes" ganders, sampling January 15 (before treatment)
[19] = "Landes" ganders, sampling January 31
[20] = "Landes" ganders, sampling March 7
[21] = "Landes" ganders, sampling March 12

## CCNC(=O)[C@@H]1CCCN1C(=O)[C@H](CCCNC(=N)N)NC(=O)[C@H](CC(C)C)NC(=O)[C@@H](Cc1ccccc1)NC(=O)[C@H](Cc1ccc(O)cc1)NC(=O)[C@H](CO)NC(=O)[C@H](Cc1c[nH]c2ccccc12)NC(=O)[C@H](Cc1c[nH]cn1)NC(=O)[C@@H]1CCC(=O)N1 [Compound "C", D-Phe^6,desGly^10 -GnRH ethylamide]
Male turkeys; after 30 days
  Sperm production: 0.30 ml/animal
Male turkeys; after 60 days
  Sperm production: 0.32 ml/animal
Male turkeys; after 90 days
  Sperm production: 0.34 ml/animal
Male turkeys; after 120 days
  Sperm production: 0.30 ml/animal
Male turkeys; [4]
  Sperm production: 0.21 ml/animal
Male angora rabbits
  increase of the amount of sperm usable for artificial insemination: 2.5 fold
Male angora rabbits; in average, within 4 weeks after the treatment
  motility of spermatozoa in excess of the mean value (76%) of sperm from good males: 10%
Male angora rabbits; low-libido male angora rabbits, within 4 weeks after the treatment
  libido of the animals: significantly increased
Male angora rabbits; weighed in ml, within 4 weeks after the treatment
  sperm production relative to the average of sperm obtained from good males useful for breeding: 80%
[1]; [5]
  blood plasma testosterone level (in words): significantly raised
[1]; sampling October 1
  Testosterone: 390 ± 78 pg/mL
[1]; sampling September 3
  Testosterone: 378 ± 142 pg/mL
[1]; sampling September 10
  Testosterone: 470 ± 133 pg/mL
[1]; sampling September 17
  Testosterone: 879 ± 145 pg/mL
[1]; sampling September 24
  Testosterone: 695 ± 125 pg/mL
Ganders [2]; 0.5 μg/kg every 2 days, 3 times, "Hungarian" and "Landes" ganders
  duration of the sperm production increase: lasting for about one month and a half
Ganders [2]; "Hungarian" ganders, 0.5 μg/kg on January 28, 30, February 1, sampling January 15 (before treatment)
  Sperm: 0.19 mL
Ganders [2]; [6]
  Motility of the spermatozoa: good
  No. of spermatozoa: 3.2 10^6 /mm^3
  Ratio of dead + deficient cells: 8%
  Sperm: 0.48 mL
Ganders [2]; [7]
  Motility of the spermatozoa: good
  No. of spermatozoa: 3.0 10^6 /mm^3
  Ratio of dead + deficient cells: 10%
  Sperm: 0.56 mL
Ganders [2]; [8]
  Motility of the spermatozoa: good
  No. of spermatozoa: 2.9 10^6 /mm^3
  Ratio of dead + deficient cells: 12%
  Sperm: 0.30 mL
Ganders [2]; [9]
  Motility of the spermatozoa: good
  No. of spermatozoa: 2.9 10^6 /mm^3
  Ratio of dead + deficient cells: 14%
  Sperm: 0.23 mL
Ganders [2]; [10]
  Motility of the spermatozoa: weak
  No. of spermatozoa: 2.1 10^6 /mm^3
  Ratio of dead + deficient cells: 19%
Ganders [2]; [11]
  Motility of the spermatozoa: weak
  No. of spermatozoa: 2.3 10^6 /mm^3
  Ratio of dead + deficient cells: 20%
  Sperm: 0.25 mL
Ganders [2]; [12]
  Motility of the spermatozoa: good
  No. of spermatozoa: 3.1 10^6 /mm^3
  Ratio of dead + deficient cells: 17%
  Sperm: 0.44 mL
Ganders [2]; [13]
  Motility of the spermatozoa: good
  No. of spermatozoa: 3.0 10^6 /mm^3
  Ratio of dead + deficient cells: 14%
  Sperm: 0.33 mL
Ganders [2]; "Landes" ganders, 0.5 μg/kg on January 28, 30, February 1, sampling January 15 (before treatment)
  Sperm: 0.19 mL
Ganders [2]; [14]
  Motility of the spermatozoa: medium
  No. of spermatozoa: 2.2 10^6 /mm^3
  Ratio of dead + deficient cells: 19%
  Sperm: 0.32 mL
Ganders [2]; [15]
  Motility of the spermatozoa: good
  No. of spermatozoa: 2.0 10^6 /mm^3
  Ratio of dead + deficient cells: 16%
  Sperm: 0.45 mL
Ganders [2]; [16]
  Motility of the spermatozoa: medium
  No. of spermatozoa: 2.0 10^6 /mm^3
  Ratio of dead + deficient cells: 19%
  Sperm: 0.38 mL
Ganders [2]; [17]
  Motility of the spermatozoa: medium
  No. of spermatozoa: 2.2 10^6 /mm^3
  Ratio of dead + deficient cells: 17%
  Sperm: 0.35 mL
Ganders [2]; [18]
  Motility of the spermatozoa: weak
  No. of spermatozoa: 1.9 10^6 /mm^3
  Ratio of dead + deficient cells: 23%
Ganders [2]; [19]
  Motility of the spermatozoa: medium
  No. of spermatozoa: 2.0 10^6 /mm^3
  Ratio of dead + deficient cells: 23%
  Sperm: 0.43 mL
Ganders [2]; [20]
  Motility of the spermatozoa: good
  No. of spermatozoa: 1.9 10^6 /mm^3
  Ratio of dead + deficient cells: 20%
  Sperm: 0.18 mL
Ganders [2]; [21]
  Motility of the spermatozoa: medium
  No. of spermatozoa: 1.8 10^6 /mm^3
  Ratio of dead + deficient cells: 19%
  Sperm: 0.20 mL
Ganders [3]; [5]
  libido of the animals: significantly raised
Ganders [3]; 0.5 μg/kg, ganders
  duration of the high copulation activity: maintained at this high level for one additional month
Ganders [3]; October 1
  No. of daily copulations: 10
Ganders [3]; September 3
  No. of daily copulations: 9
Ganders [3]; September 10
  No. of daily copulations: 7
Ganders [3]; September 17
  No. of daily copulations: 12
Ganders [3]; September 24
  No. of daily copulations: 13

## (Asp-α-anilide)^6,desGly^10 -GnRH [Compound "B"]
Male turkeys; after 30 days
  Sperm production: 0.21 ml/animal
Male turkeys; after 60 days
  Sperm production: 0.28 ml/animal
Male turkeys; [4]
  Sperm production: 0.18 ml/animal
